Values of other authors as cited in patent publication US20210113664A1, “IMPLANTS FOR RELEASE OF LIPOPHILIC OR AMPHIPHILIC PHARMACEUTICAL SUBSTANCES” (Titan Pharmaceuticals, Inc., priority 2018, published 2021).

Conditions: values as reported by PubChem

log Poct	Compound
about 4	N[C@@H](Cc1cc(I)c(Oc2cc(I)c(O)c(I)c2)c(I)c1)C(=O)O [levothyroxine]
about 4.8	CC#CCC(C)[C@H](O)/C=C/[C@@H]1[C@H]2C/C(=C/CCCC(=O)O)C[C@H]2C[C@H]1O (some centres unmarked) [iloprost]
